From ChEMBL document CHEMBL1201862, “PubChem BioAssay data set” (2004)
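Compound exposure: 48 hours, 5 concentrations, 96-well plates. GI50 marks 50% less growth.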 Activity calls are given as the source filed them. Cut-off read from the data, not from the text of the source: active = GI50 up to about 1.1 µM and inactive = higher.

Legend:
Assay in all cases: NCI-60 cell line screen, 48 h
786-0 = tested on: 786-0
BT-549 = tested on: BT-549
DU-145 = tested on: DU-145
HOP-62 = tested on: HOP-62
HT-29 = tested on: HT-29
LOX IMVI = tested on: LOX IMVI
M14 = tested on: M14
MCF7 = tested on: MCF7
MDA-MB-435 = tested on: MDA-MB-435
MOLT-4 = tested on: MOLT-4
NCI-H23 = tested on: NCI-H23
NCI-H522 = tested on: NCI-H522
SF-539 = tested on: SF-539
SK-OV-3 = tested on: SK-OV-3
U-251 = tested on: U-251
UACC-257 = tested on: UACC-257
ACHN = tested on: ACHN
HOP-92 = tested on: HOP-92
RPMI-8226 = tested on: RPMI-8226
Hs-578T = tested on: Hs-578T

Measured: GI50

CCSCCCSCCSCC
inactive: 786-0 > 100 µM | BT-549 > 100 µM | DU-145 > 100 µM | HOP-62 > 100 µM | HT-29 > 100 µM | LOX IMVI > 100 µM | M14 > 100 µM | MCF7 > 100 µM | MDA-MB-435 > 100 µM | MOLT-4 17.2 µM | NCI-H23 > 100 µM | NCI-H522 > 100 µM | SF-539 > 100 µM | SK-OV-3 > 100 µM | U-251 > 100 µM | UACC-257 > 100 µM

O=C(/C=C/c1ccc([N+](=O)[O-])o1)N1CCN(Cc2ccccc2)CC1
inactive: 786-0 12.7 µM | ACHN 14.7 µM | HOP-62 20.2 µM | HOP-92 14.1 µM | HT-29 5.81 µM | LOX IMVI 12.6 µM | M14 4.66 µM | MOLT-4 11.6 µM | NCI-H23 5.93 µM | NCI-H522 2.82 µM | RPMI-8226 10.5 µM | SF-539 6.61 µM | SK-OV-3 43.5 µM | U-251 14 µM | UACC-257 7.89 µM

COC(=O)Nc1cc(OCCCOC(C)=O)c2[nH]c(C(=O)OC)cc2c1C[C@H](O)CO
inactive: 786-0 > 100 µM | ACHN > 100 µM | BT-549 54.7 µM | DU-145 > 100 µM | HOP-62 > 100 µM | HOP-92 11.1 µM | HT-29 > 100 µM | LOX IMVI > 100 µM | M14 > 100 µM | MCF7 > 100 µM | MDA-MB-435 > 100 µM | MOLT-4 > 100 µM | NCI-H23 > 100 µM | NCI-H522 2.94 µM | RPMI-8226 > 100 µM | SF-539 > 100 µM | SK-OV-3 > 100 µM | U-251 > 100 µM | UACC-257 > 100 µM

Cc1ccc2c(c1)CC1(Cc3ccccc3C1=O)C2=O (stereo unspecified)
inactive: 786-0 > 100 µM | ACHN > 100 µM | DU-145 > 100 µM | HOP-62 44.4 µM | HOP-92 64.3 µM | HT-29 > 100 µM | Hs-578T > 100 µM | LOX IMVI > 100 µM | M14 > 100 µM | MCF7 > 100 µM | MDA-MB-435 > 100 µM | MOLT-4 > 100 µM | NCI-H23 > 100 µM | NCI-H522 > 100 µM | RPMI-8226 > 100 µM | SF-539 > 100 µM | SK-OV-3 > 100 µM | U-251 > 100 µM | UACC-257 > 100 µM

O=[N+]([O-])/C(C(Cl)=C(Cl)Cl)=C1/OCCS1
inactive: 786-0 23 µM | ACHN 20.4 µM | DU-145 42.2 µM | HOP-62 20.8 µM | HT-29 27.5 µM | Hs-578T 39.7 µM | LOX IMVI 21.4 µM | M14 46.7 µM | MCF7 61.4 µM | MDA-MB-435 22.6 µM | MOLT-4 17.9 µM | NCI-H23 23.4 µM | NCI-H522 32.4 µM | RPMI-8226 22.9 µM | SF-539 21.3 µM | SK-OV-3 48.6 µM | U-251 36 µM | UACC-257 27.7 µM

O=C1/C(=C/c2cccc3ccccc23)Cc2ccccc21
inactive: 786-0 20.4 µM | ACHN 36.5 µM | BT-549 13.2 µM | HT-29 32.7 µM | Hs-578T 22 µM | LOX IMVI 34.4 µM | M14 59.2 µM | MCF7 5.93 µM | MOLT-4 40.5 µM | NCI-H23 17.1 µM | RPMI-8226 51.9 µM | SF-539 27.2 µM | SK-OV-3 18.6 µM | U-251 19.6 µM
